US20250236627A1, “CERTAIN OCTAHYDROFURO[3,4- B]PYRAZINES AS GLP-1 RECEPTOR MODULATORS” (ASTRAZENECA AB, priority 2021, published 2025)

Legend:
[1] = biological target: T1, human GLP-1R receptor (Homo sapiens, UniProt P43220, L260F); experiment: CHOK1 GLP-1R cAMP Assay; format: cell-based; settings: CHO-K1 cell line stably expressing human GLP-1R; HTRF cAMP detection
T1 construct: expressed in transfected cells; host or cells: CHO-K1 (ATCC CCL-61)
Method: A cell line stably expressing the human GLP-1R receptor (NM_002062.5, including the naturally-occurring variant Leu260Phe) in a CHO-K1 (ATCC® CCL-61™) was used for assay.
GLP-1 Receptor mediated agonist activity was determined in a cell based assay measuring cAMP levels in cells using Homogeneous Time-Resolved Fluorescence (HTRF) cAMP detection kit (CisBio catalog #62AM4PEC, cAMP Gs Dynamic range kit). The cAMP detection method is based on a competitive immunoassay, in which cAMP produced by the cells and cAMP labeled with the dye d2 compete for binding to a Europium-Cryptate-labeled anti-cAMP antibody. The specific HTRF signal is inversely proportional to the concentration of cAMP.
Compounds were added to individual well in 384 well-assay plates (Greiner #784076) using an Echo (LabCyte) dispenser from 10 mM stocks. Varying concentration of compounds were added to wells, and dimethyl sulfoxide was used to normalize each well to a volume of 100 nanoliter. A dose response curve of GLP1(7-36)NH2 (Bachem H-6795) was included in each run. 5 μL of cAMP concentration response standards are applied in specified wells in the assay plates.
Cryo-preserved cells are thawed and resuspended in assay buffer pre-heated to 37° C. (20 mM 2-[4-(2-hydroxyethyl)piperazin-1-yl]ethanesulfonic acid (HEPES) pH 7.4, lx Hank's Balanced Salt Solution (HBSS, Life Technologies #14065) supplemented with 0.1% (w/v) bovine serum albumin (Sigma, A-7030)). Cells were centrifuged at 250*g for 5 min at room temperature, and resuspend in room tempered assay buffer to a final density of 0.16*10^6 cell/mL, to deliver 800 cells/well. 5 μL of assay buffer with 1 mM 3-isobutyl-1-methylxanthin (IBMX; Sigma cat I-7018) was dispensed per well in assay plates using a multidrop combi (Thermo Scientific) subsequently 5 μL of cell suspension was distributed to relevant wells in the assay using a multidrop dispenser. Assay plates were incubated 20 min at room temperature.
Detection reagents, Europium-Cryptate-labeled anti-cAMP antibody and cAMP labeled with the dye d2, are diluted in lysis buffer, provided by the manufacturer. 5 μL of each detection reagent is supplemented to each assay well using a multidrop dispenser. Assay plates are incubated in the dark for at least one hour. The HTRF signal is measured using the HTRF module (excitation: 337 nm, emission A: 665 nm and emission B: 620 nm) in Pherastar FSX (BMG Labtech).
Raw data were converted to pM cAMP using the cAMP standard curve included in each run. Converted data were further analyzed in Genedata Screener (Genedata) and EC50 determinations were made from agonist dose-response curves analyzed with a curve fitting program using a 4-parameter logistic dose response equation (Equation y=A+((B−A)/1+((C/x)^D))) where A is no stimulation, B is full stimulation, C is the EC50 and D is the Hill slope). The percent effect was determined relative to a saturating concentration of a full GLP-1R agonist (GLP1(7-36)NH2 has 100% effect in this assay setup).

[2] = biological target: T2, endogenous human glucagon-like peptide 1 receptor (GLP-1R) (Homo sapiens, UniProt P43220); experiment: EndoC cAMP Accumulation Assay; format: cell-based; settings: EndoC-βH1 human pancreatic β cell line; HTRF cAMP assay
T2 construct: endogenous human glucagon-like peptide 1 receptor (GLP-1R) in a pancreatic insulinoma cell line; host or cells: EndoC-βH1 human pancreatic β cell line
Description: EndoC cAMP Accumulation Assay
A HTRF (Homogeneous Time-Resolved Fluorescence) cAMP assay (cAMP Gs dynamic kit; CisoBio Cat #62AM4PEJ) was used to identify agonists of the endogenous human glucagon-like peptide 1 receptor (GLP-1R) in a pancreatic insulinoma cell line (EndoC-βH1). […] EndoC-βH1 cells have detectable GLP-1R mRNA as detected by qPCR^1. […] The EndoC-βH1 cell line is a valid model of human beta cells and applicable for screenings to identify novel drug target candidates (Mol. Metab., 2018, 8, 144-157). CisBio HTRF cAMP kits are based on a competitive immunoassay using cryptate-labelled anti-cAMP antibody and d2-labeled cAMP. The detection kit is intended for the direct quantitative determination of cAMP. The specific signal (i.e. energy transfer) is inversely proportional to the concentration of cAMP in the standard or sample. Test compounds (10 mM in DMSO) were diluted into assay buffer (HBSS (Sigma #H8264) supplemented with 25 mM HEPES (Gibco #15630, pH 7.4), 0.1% BSA (Sigma #A3059) and 0.5 mM IBMX (Sigma #I7018) included fresh on the day of the assay) into 96 well U-bottom plates (Greiner #650201). Diluted compounds were transferred to ECHO source PP plates (Labcyte #P-05525) and dose response curves were dispensed acoustically using ECHO 550 into black shallow-well u-bottom 384-well HTRF Assay Plates (Corning 4514).
Cryovials of EndoC-H1 (supplied at 1×10e^7 cells/vial) were used directly for screening. The cryovials and were removed from LN2 and thawed rapidly in a 37° C. water bath. The cells were resuspended in assay buffer and centrifuged at 300 g for 5 min. Cells were resuspended in assay buffer at the appropriate concentration, typically at 12e5 cells per mL (3000 cells per well, dependent on cell batch) and 2.5 μL diluted cells were added to all wells of destination plate by Multidrop combi reagent dispenser (Thermofisher). The plates were incubated at room temperature for 30 min. The assay was stopped by adding 2.5 μL anti-cAMP cryptate solution to all wells and 2.5 μL cAMP-d2 solution (both diluted 1:20 in lysis buffer) to columns 1-22 by Combi drop. A volume of 2.5 μL cAMP-d2 solution was added to wells E23 to P24 and 2.5 μL lysis buffer added to wells A23 to D24 by multichannel pipette. The plates were incubated at room temperature for 1 hr and read on an Envision plate reader using excitation wavelength of 320 nm and emission of 590 nm and 660 nm.
Raw data from Envision is converted to % DeltaF according to the manufacturer's instructions. Dose response curves are analysed via 4-Parameter Logistical Analysis and assay plate Z′ values obtained. Samples are graphed as percentage (%) activation plots compared to GIP (1-42, Bachem H-5645) with assay window defined by negative control as basal cell cAMP levels and positive control are defined by maximum GIP (82.5 nM) signal. GLP1 (7-36 amide, Bachem H-6795) dose response curve was included on all plates.

T1 sequence (P43220 24-463 L260F): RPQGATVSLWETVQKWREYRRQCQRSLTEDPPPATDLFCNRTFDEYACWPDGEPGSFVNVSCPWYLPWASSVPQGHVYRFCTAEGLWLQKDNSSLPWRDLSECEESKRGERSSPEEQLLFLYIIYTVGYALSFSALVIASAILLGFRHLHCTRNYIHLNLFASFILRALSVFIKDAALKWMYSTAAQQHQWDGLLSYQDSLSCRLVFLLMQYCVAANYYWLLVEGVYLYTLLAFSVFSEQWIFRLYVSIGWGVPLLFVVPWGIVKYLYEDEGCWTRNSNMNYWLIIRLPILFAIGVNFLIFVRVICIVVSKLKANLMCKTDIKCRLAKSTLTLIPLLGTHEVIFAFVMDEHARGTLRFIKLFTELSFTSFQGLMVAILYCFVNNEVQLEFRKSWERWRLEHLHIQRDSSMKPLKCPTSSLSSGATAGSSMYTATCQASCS
T2 sequence (P43220 24-463): as the sequence (P43220 24-463 L260F) above, with F237L counted along it

Row | Structure (SMILES) | EC50 [1] [nM] | EC50 [2] [nM]
1 | C[C@]1(c2ccc(Cl)cn2)Oc2cccc(N3CCN(Cc4nc5c(F)cc(C(=O)O)cc5n4C[C@@H]4CCO4)[C@H]4COC[C@H]43)c2O1 (single isomer, unassigned) [Example 9c, 2-((4aR*,7aS*)-4-((R*)-2-(5-Chloropyridin-2-yl)-2-methylbenzo[d][1,3]dioxol-4-yl)hexahydrofuro[3,4-b]pyrazin-1(2H)-yl)methyl)-4-fluoro-1-(((S)-oxetan-2-yl)methyl)-1H-benzo[d]imidazole-6-carboxylic acid] | 570 | 1100
2 | C[C@]1(c2ccc(Cl)cn2)Oc2cccc(N3CCN(Cc4nc5ccc(C(=O)O)cc5n4CCn4cccn4)[C@H]4COC[C@H]43)c2O1 (single isomer, unassigned) [Example 10] | 160 | 76
3 | C[C@]1(c2ccc(Cl)cn2)Oc2cccc(N3CCN(Cc4nc5c(F)cc(C(=O)O)cc5n4CCn4cccn4)[C@H]4COC[C@H]43)c2O1 (single isomer, unassigned) [Example 11] | 96 | 35
4 | C[C@]1(c2ccc(Cl)cn2)Oc2cccc(N3CCN(Cc4nc5c(F)cc(C(=O)O)cc5n4C[C@@H]4CCCO4)[C@H]4COC[C@H]43)c2O1 (single isomer, unassigned) [Example 12a, 2-(((4aR*,7aS*)-4-((R*)-2-(5-Chloropyridin-2-yl)-2-methylbenzo[d][1,3]dioxol-4-yl)hexahydrofuro[3,4-b]pyrazin-1(2H)-yl)methyl)-4-fluoro-1-(((S)-tetrahydrofuran-2-yl)methyl)-1H-benzo[d]imidazole-6-carboxylic acid] | 8 | 7.6
5 | C[C@]1(c2ccc(Cl)cn2)Oc2cccc(N3CCN(Cc4nc5c(F)cc(C(=O)O)cc5n4C[C@@H]4CCCO4)[C@H]4COC[C@H]43)c2O1 (single isomer, unassigned) [Example 12b, 2-(((4aR*,7aS*)-4-((R*)-2-(5-Chloropyridin-2-yl)-2-methylbenzo[d][1,3]dioxol-4-yl)hexahydrofuro[3,4-b]pyrazin-1(2H)-yl)methyl)-4-fluoro-1-(((S)-tetrahydrofuran-2-yl)methyl)-1H-benzo[d]imidazole-6-carboxylic acid] | 61 | 91
6 | C[C@]1(c2ccc(Cl)cc2F)Oc2cccc(N3CCN(Cc4nc5c(F)cc(C(=O)O)cc5n4Cc4cccnc4)[C@H]4COC[C@H]43)c2O1 (single isomer, unassigned) [Example 13a] | 55 | 13
7 | C[C@]1(c2ccc(Cl)cc2F)Oc2cccc(N3CCN(Cc4nc5c(F)cc(C(=O)O)cc5n4Cc4cccnc4)[C@H]4COC[C@H]43)c2O1 (single isomer, unassigned) [Example 13b] | 680 | 290
8 | C[C@]1(c2ccc(Cl)cn2)Oc2cccc(N3CCN(Cc4nc5c(Cl)cc(C(=O)O)cc5n4C[C@@H]4CCO4)[C@H]4COC[C@H]43)c2O1 (single isomer, unassigned) [Example 14a, 4-Chloro-2-(((4aR*,7aS*)-4-((R*)-2-(5-chloropyridin-2-yl)-2-methylbenzo[d][1,3]dioxol-4-yl)hexahydrofuro[3,4-b]pyrazin-1(2H)-yl)methyl)-1-(((S)-oxetan-2-yl)methyl)-1H-benzo[d]imidazole-6-carboxylic acid] | 1.5 | 3.3
9 | C[C@]1(c2ccc(Cl)cn2)Oc2cccc(N3CCN(Cc4nc5c(Cl)cc(C(=O)O)cc5n4C[C@@H]4CCO4)[C@H]4COC[C@H]43)c2O1 (single isomer, unassigned) [Example 14b, 4-Chloro-2-(((4aR*,7aS*)-4-((R*)-2-(5-chloropyridin-2-yl)-2-methylbenzo[d][1,3]dioxol-4-yl)hexahydrofuro[3,4-b]pyrazin-1(2H)-yl)methyl)-1-(((S)-oxetan-2-yl)methyl)-1H-benzo[d]imidazole-6-carboxylic acid] | 170 | 600
10 | C[C@]1(c2ccc(Cl)cn2)Oc2cccc(N3CCN(Cc4nc5c(Cl)cc(C(=O)O)cc5n4C[C@@H]4CCO4)[C@H]4COC[C@H]43)c2O1 (single isomer, unassigned) [Example 14c, 4-Chloro-2-(((4aR*,7aS*)-4-((R*)-2-(5-chloropyridin-2-yl)-2-methylbenzo[d][1,3]dioxol-4-yl)hexahydrofuro[3,4-b]pyrazin-1(2H)-yl)methyl)-1-(((S)-oxetan-2-yl)methyl)-1H-benzo[d]imidazole-6-carboxylic acid] | 180 | 230
11 | C[C@]1(c2ccc(Cl)cn2)Oc2cccc(N3CCN(Cc4nc5c(Cl)cc(C(=O)O)cc5n4C[C@@H]4CCO4)[C@H]4COC[C@H]43)c2O1 (single isomer, unassigned) [Example 14d, 4-Chloro-2-(((4aR*,7aS*)-4-((R*)-2-(5-chloropyridin-2-yl)-2-methylbenzo[d][1,3]dioxol-4-yl)hexahydrofuro[3,4-b]pyrazin-1(2H)-yl)methyl)-1-(((S)-oxetan-2-yl)methyl)-1H-benzo[d]imidazole-6-carboxylic acid] | 190 | 480
12 | C[C@]1(c2ccc(Cl)cc2F)Oc2cccc(N3CCN(Cc4nc5c(Cl)cc(C(=O)O)cc5n4C[C@@H]4CCO4)[C@H]4COC[C@H]43)c2O1 (single isomer, unassigned) [Example 15b, 4-Chloro-2-(((4aR*,7aS*)-4-((R*)-2-(4-chloro-2-fluorophenyl)-2-methylbenzo[d][1,3]dioxol-4-yl)hexahydrofuro[3,4-b]pyrazin-1(2H)-yl)methyl)-1-(((S)-oxetan-2-yl)methyl)-1H-benzo[d]imidazole-6-carboxylic acid] | 71 | 120
